Test results reported in patent US8747900B2, “Dosage form with improved release of cefuroximaxetil” (Gruenenthal GmbH, priority 2005, dated 2014).

Legend:
[1] = cited from earlier work; for Solubility of the active ingredient (dissolved): after 45 minutes, standard method USP 23 page 316
[2] = Storage stability of the crystalline modification at elevated temperature; format: physicochemical
Description: The crystalline modification of cefuroximaxetil according to the invention is stable in storage. […] Even after storage for 2 months at 40° C. and 75% rel. atmospheric humidity, the content of the comparatively easily formed Δ^3-degradation product is still below 1.0 wt. %, which is indicative of excellent stability of the modification according to the invention.

[3] = Relative stability of binary mixtures of the modifications in water; format: physicochemical
[4] = Solubility / saturation solubility of cefuroximaxetil; format: physicochemical

Compound: CO/N=C(\C(=O)N[C@@H]1C(=O)N2C(C(=O)OC(C)OC(C)=O)=C(COC(N)=O)CS[C@H]12)c1ccco1 (stereo partly drawn) [α-modification, cefuroximaxetil]
- Solubility when tested according to USP 23 ([1]; minimum: 60% in 15 minutes, 75% within 45 minutes): does not achieve the specified minimum solubility

Compound: CO/N=C(\C(=O)N[C@@H]1C(=O)N2C(C(=O)OC(C)OC(C)=O)=C(COC(N)=O)CS[C@H]12)c1ccco1 (some centres unmarked) [γ-modification, cefuroximaxetil]
- Solubility of the active ingredient (dissolved) [1]: 73.0%

Compound: CO/N=C(\C(=O)N[C@@H]1C(=O)N2C(C(=O)OC(C)OC(C)=O)=C(COC(N)=O)CS[C@H]12)c1ccco1 (stereo partly drawn) [β-modification, cefuroximaxetil]
- Solubility of the active ingredient (dissolved) [1]: over 40%

Compound: CO/N=C(\C(=O)N[C@@H]1C(=O)N2C(C(=O)OC(C)OC(C)=O)=C(COC(N)=O)CS[C@H]12)c1ccco1 (some centres unmarked) [δ-modification, cefuroximaxetil]
- Change to the composition, chemically (decomposition products) or physically (solubility, X-ray diffractogram) ([2]; after storage at elevated temperature): no significant change
- Content of Δ^3-degradation product ([2]; after storage for 2 months at 40° C. and 75% rel. atmospheric humidity): below 1.0 wt. %
- Stability relative to the α-, β- and γ-modification [3]: stabler

Compound: CO/N=C(\C(=O)N[C@@H]1C(=O)N2C(C(=O)OC(C)OC(C)=O)=C(COC(N)=O)CS[C@H]12)c1ccco1 (stereo partly drawn) [Cefuroximaxetil, 1-acetoxyethyl ester of cefuroxime, i.e. of (6R,7R)-3-carbamoyloxymethyl-7-[(Z)-2-(fur-2-yl)-2-methoxyiminoacetamido]ceph-3-em-4-carboxylic acid]
- Saturation solubility ([4]; in the dissolution medium (1000 ml), artificial gastric juice + Tween 80): 600 mg
- Solubility ([4]; largely pH-independent): approx. 0.5 mg/ml
